Test results from PMC6271338, “Synthesis and Cytotoxic Evaluation of Alkoxylated Chalcones” (Molecules, 2014).

Tests used:
[1] = Cytotoxicity (SRB) against non-tumoral HMLE cells; type: cell-based, human; conditions: human, HMLE cells (non-tumoral human mammary epithelial cells); increasing concentrations up to 100 μM; mean ± SD of at least three independent experiments; read-out: Normal Human Cell Lines, CC50, HMLE
Method: (§1) All compounds were also evaluated for their cytotoxic activity against two non-tumoral human cell lines named human mammary epithelial cell (HMLE) and L02 (a human liver cell line) in Table 2 and SI values between the CC50 in non-tumoral cell lines and IC50 in tumoral cells calculated.
(§2) HepG2 and MCF7 cells were grown in the Eagle’s minimum essential medium with Earle’s balanced salts (MEM-EBSS) medium, HeLa, A549 and L02 cells were grown in Dulbecco’s Modified Eagle Media (DMEM), SW1990 cells were grown in RPMI-1640 medium, and HMLE cell were grown in DMEM/F-12 medium. […]
(§3) Cells were seeded into 96-well plates (4000 cells/well) and incubated at 37 °C in a humidified 5% CO2 atmosphere. After 24 h, the cells were treated with different concentrations of the compounds for 48 h in triplicate to generate dose-response curves. Cell viability was evaluated using the sulforhodamine B (SRB) assay as previous described. […] Etoposide was used as the positive control.

SW1990 cells = assay: In vitro anti-proliferative SRB assay, SW1990; type: cell-based, human; conditions: for IC50: Homo sapiens, SW1990, increasing concentrations up to 30 μM, mean ± SD of at least three independent experiments; for SI (CC50 HMLE/IC50 SW1990) / SI (CC50 L02/IC50 SW1990): selectivity index; for SI (CC50 HMLE/IC50 SW1990): HMLE vs SW1990; for SI (CC50 L02/IC50 SW1990): L02 vs SW1990
Method: as §2
(§4) Cells were seeded into 96-well plates (4000 cells/well) and incubated at 37 °C in a humidified 5% CO2 atmosphere. After 24 h, the cells were treated with different concentrations of the compounds for 48 h in triplicate to generate dose-response curves. Cell viability was evaluated using the sulforhodamine B (SRB) assay as previous described.

HeLa cells = assay: In vitro anti-proliferative SRB assay, HeLa; type: cell-based, human; conditions: for IC50: Homo sapiens, HeLa, increasing concentrations up to 30 μM, mean ± SD of at least three independent experiments; for SI (CC50 HMLE/IC50 Hela) / SI (CC50 L02/IC50 Hela): selectivity index; for SI (CC50 HMLE/IC50 Hela): HMLE vs HeLa; for SI (CC50 L02/IC50 Hela): L02 vs HeLa
Method: as §2, §4

HepG2 cells = assay: In vitro anti-proliferative SRB assay, HepG2; type: cell-based, human; conditions: for IC50: Homo sapiens, HepG2, increasing concentrations up to 30 μM, mean ± SD of at least three independent experiments; for SI (CC50 HMLE/IC50 HepG2) / SI (CC50 L02/IC50 HepG2): selectivity index; for SI (CC50 HMLE/IC50 HepG2): HMLE vs HepG2; for SI (CC50 L02/IC50 HepG2): L02 vs HepG2
Method: as §2, §4

MCF-7 cells = assay: In vitro anti-proliferative SRB assay, MCF-7; type: cell-based, human; conditions: for IC50: Homo sapiens, MCF7, increasing concentrations up to 30 μM, mean ± SD of at least three independent experiments; for SI (CC50 HMLE/IC50 MCF7) / SI (CC50 L02/IC50 MCF7): selectivity index; for SI (CC50 HMLE/IC50 MCF7): HMLE vs MCF7; for SI (CC50 L02/IC50 MCF7): L02 vs MCF7
Method: as §2, §4

A549 cells = assay: In vitro anti-proliferative SRB assay, A549; type: cell-based, human; conditions: for IC50: Homo sapiens, A549, increasing concentrations up to 30 μM, mean ± SD of at least three independent experiments; for SI (CC50 HMLE/IC50 A549) / SI (CC50 L02/IC50 A549): selectivity index; for SI (CC50 HMLE/IC50 A549): HMLE vs A549; for SI (CC50 L02/IC50 A549): L02 vs A549
Method: as §2, §4

[2] = Cytotoxicity (SRB) against non-tumoral L02 cells; type: cell-based, human; conditions: human, L02 cells (non-tumoral human liver cell line); increasing concentrations up to 100 μM; mean ± SD of at least three independent experiments; read-out: Normal Human Cell Lines, CC50, L02
Method: as §1, §2, §3

SMILES | melting point [°C] | IC50 (SW1990 cells) [µM] | IC50 (HeLa cells) [µM] | IC50 (HepG2 cells) [µM] | IC50 (MCF-7 cells) [µM] | IC50 (A549 cells) [µM] | CC50 at 48 h [1] [µM] | SI (CC50 HMLE/IC50 SW1990) (SW1990 cells) | SI (CC50 L02/IC50 SW1990) (SW1990 cells) | SI (CC50 HMLE/IC50 Hela) (HeLa cells) | SI (CC50 L02/IC50 Hela) (HeLa cells) | SI (CC50 HMLE/IC50 HepG2) (HepG2 cells) | SI (CC50 L02/IC50 HepG2) (HepG2 cells) | SI (CC50 HMLE/IC50 MCF7) (MCF-7 cells) | SI (CC50 L02/IC50 MCF7) (MCF-7 cells) | SI (CC50 HMLE/IC50 A549) (A549 cells) | SI (CC50 L02/IC50 A549) (A549 cells) | CC50 at 48 h [2] [µM]
COc1cccc(OC)c1/C=C/C(=O)c1cccc(C)c1 [b3, (E)-1-(3-Methylphenyl)-3-(2,6-dimethoxyphenyl)prop-2-en-1-one] | 102.5 to 103.8 | 25.2 ± 2 | 13.3 ± 2.14 | 12.8 ± 0.5 | 26.8 ± 4.26 | 20.7 ± 0.59 | 16.2 ± 0.19 | 0.6 | 1.3 | 1.2 | 2.5 | 1.3 | 2.6 | 0.6 | 1.2 | 0.8 | 1.6 | 33.3 ± 1.61
COc1cccc(OC)c1/C=C/C(=O)c1ccc(C)cc1 [b4, (E)-1-(4-Methylphenyl)-3-(2,6-dimethoxyphenyl)prop-2-en-1-one] | 82.7 to 84.5 | > 30 | 18.6 ± 0.36 | 19.5 ± 1.28 | 25.44 ± 0.15 | 22.1 ± 0.6 | 13.8 ± 1.69 | <0.5 | <2.0 | 0.7 | 3.2 | 0.7 | 3.1 | 0.5 | 2.3 | 0.6 | 2.7 | 59.6 ± 5.56
COc1cccc(OC)c1/C=C/C(=O)c1ccccc1C [b2, (E)-1-(2-Methylphenyl)-3-(2,6-dimethoxyphenyl)prop-2-en-1-one] | 79.8 to 81.4 | > 30 | 18.4 ± 0.75 | 14.1 ± 1.84 | 19.1 ± 2.11 | 25.5 ± 4.14 | 15 ± 0.78 | <0.5 | <1.2 | 0.8 | 1.9 | 1.1 | 2.5 | 0.8 | 1.9 | 0.6 | 1.4 | 35.9 ± 3.4

Now from value to molecule, other results behind:

melting point [°C] | IC50 (SW1990 cells) [µM] | IC50 (HeLa cells) [µM] | IC50 (HepG2 cells) [µM] | IC50 (MCF-7 cells) [µM] | IC50 (A549 cells) [µM] | SMILES | CC50 at 48 h [1] [µM] | SI (CC50 HMLE/IC50 SW1990) (SW1990 cells) | SI (CC50 L02/IC50 SW1990) (SW1990 cells) | SI (CC50 HMLE/IC50 Hela) (HeLa cells) | SI (CC50 L02/IC50 Hela) (HeLa cells) | SI (CC50 HMLE/IC50 HepG2) (HepG2 cells) | SI (CC50 L02/IC50 HepG2) (HepG2 cells) | SI (CC50 HMLE/IC50 MCF7) (MCF-7 cells) | SI (CC50 L02/IC50 MCF7) (MCF-7 cells) | SI (CC50 HMLE/IC50 A549) (A549 cells) | SI (CC50 L02/IC50 A549) (A549 cells) | CC50 at 48 h [2] [µM]
120.5 to 122.7 | 13.84 ± 0.06 | 9.26 ± 0.04 | 7.12 ± 0.67 | 19.7 ± 0.2 | 13.6 ± 0.85 | COc1ccc(C(=O)/C=C/c2c(OC)cccc2OC)cc1OC [b19, (E)-1-(3,4-Dimethoxyphenyl)-3-(2,6-dimethoxyphenyl)prop-2-en-1-one] | 10.5 ± 0.41 | 0.8 | 2.9 | 1.1 | 4.3 | 1.5 | 5.6 | 0.5 | 2.0 | 0.8 | 2.9 | 39.8 ± 6.32
118.8 to 120.2 | 24.4 ± 0.6 | 21.6 ± 0.43 | 17.3 ± 0.23 | 22.6 ± 2.1 | 22.3 ± 0.99 | COc1cccc(OC)c1/C=C/C(=O)c1ccc2c(c1)CCO2 [b21, (E)-1-(2,3-Dihydrobenzofuran-5-yl)-3-(2,6-dimethoxyphenyl)prop-2-en-1-one] | 14.6 ± 0.81 | 0.6 | 2.4 | 0.7 | 2.7 | 0.8 | 3.3 | 0.6 | 2.5 | 0.7 | 2.6 | 57.5 ± 13.6
